# Results: PMC9038752, “Molecular mechanisms of bifunctional vitamin D receptor agonist-histone deacetylase inhibitor hybrid molecules in triple-negative breast cancer” (Scientific Reports, 2022)
# Columns and labels:
# purified HDAC2 = target: T1, purified HDAC2 (Homo sapiens, UniProt Q92769); experiment: Fluorogenic HDAC inhibition assay, HDAC2; assay type: biochemical; details: purified HDAC2, fluorometric substrate
# T1 construct: purchased Cayman Chemical
# Description: (§1) The hybrids were assessed to determine their HDACi and VDR agonist activity as well as their antiproliferative properties relative to DK-406. HDACi activity was assessed in vitro using an acetylated lysine substrate that releases a fluorescent reporter upon HDACi deacetylation and subsequent trypsin digestion. Increasing sidechain length of pyrimidine hybrids enhanced the potency of HDAC6 inhibition, with several compounds inhibiting HDAC6 with a sub-micromolar IC50, similar to that of DK-406 (Fig. 4a). […] Next, we analyzed the effects of compounds on levels of H3K9 and H3K27 acetylation in 4TO7 cells, which are controlled by class I HDACs[29],[30]. […] We also tested the capacity of analogues to induce tubulin acetylation, controlled by class II enzyme HDAC6[32], in 4TO7 cells. Based on their relative efficacy in cytotoxicity assays (see below, Fig. 5c,d), we used 10^–5 M DK-406 and 10^–6 M AM-193 for these studies.
# (§2) Figure 4 (a) Results of in vitro assays for inhibition of purified HDAC2 and HDAC6 by DK-406 and heterocyclic hybrids as measured by inhibition of deacetylation of a fluorometric substrate (see Methods for details). (b–d) Left: Western blotting analysis of histone 3 lysine 9 (H3K9; b), H3K27 (c), or acetylated tubulin (d), levels in 4TO7 cells treated with ligands for 6 h. Representative western-blots are shown from at least 3 biological replicates. Right: Graphs representing the average of the replicates, bars are mean ± SD. Each condition was compared to control. *: p ≤ 0.05, **: p ≤ 0.01, ***: p ≤ 0.001, ****: p ≤ 0.0001, ns: not significant. TEXT PRINTED IN THE PICTURE: (a) DK-406: HDAC6 IC50 (μM): 0.6; HDAC2 IC50 (μM): 0.5 | (a) AM-155: HDAC6 IC50 (μM): 2.8; HDAC2 IC50 (μM): 1.7 | (a) AM-171: HDAC6 IC50 (μM): 0.5; HDAC2 IC50 (μM): 9.6 | (a) AM-172: HDAC6 IC50 (μM): 0.3; HDAC2 IC50 (μM): 7.7 | (a) AM-191: HDAC6 IC50 (μM): 1.9; HDAC2 IC50 (μM): 8.1 | (a) AM-192: HDAC6 IC50 (μM): 0.5; HDAC2 IC50 (μM): 6.5 | (a) AM-193: HDAC6 IC50 (μM): 0.3; HDAC2 IC50 (μM): 7.2
# (§3) Purified HDAC2 and HDAC6 were purchased from Cayman Chemical. Boc-Lys(Ac)-7-amino-4-methylcoumarin (BocLys(Ac)-AMC) was used as substrate for the HDAC assays. Substrate solution was prepared as follow: Boc(Lys-Ac)-AMC was dissolved in DMSO and diluted with HDAC buffer (15 mM tris–HCl [pH 8.1], 250 μM EDTA, 250 mM NaCl, 10% glycerol) to give 1 mM solutions containing 1.7% DMSO. Trypsin was used to stop the reaction, releasing free AMC. The trypsin solution was prepared as follow: trypsin was dissolved in HDAC buffer to give a concentration of 10 mg/mL. Release of AMC was monitored by measuring the fluorescence at 460 nm (lex = 390 nm) with a microplate reader (SpectraMax Gemini from Molecular Devices) at 37 °C. The AMC signals were recorded against a blank with buffer, substrate and trypsin but without the enzyme. All experiments were carried out at least in triplicate.
# (§4) For HDAC inhibition assays, inhibitor diluted in 50 μL of HDAC buffer was mixed with 10 μL of diluted enzyme solution in HDAC buffer at room temperature. The HDAC reaction was started by adding 40 μL of substrate solution in HDAC buffer followed by 60 min of incubation with stirring at 37 °C. The reaction was stopped by adding 100 μL of trypsin solution. After a 30 min incubation with stirring at 37 °C, the release of AMC was monitored by measuring the fluorescence.
# purified HDAC6 = target: T2, purified HDAC6 (Homo sapiens, UniProt Q9UBN7); experiment: Fluorogenic HDAC inhibition assay, HDAC6; assay type: biochemical; details: purified HDAC6, fluorometric substrate
# T2 construct: purchased Cayman Chemical
# T2 sequence (Q9UBN7 1-1215): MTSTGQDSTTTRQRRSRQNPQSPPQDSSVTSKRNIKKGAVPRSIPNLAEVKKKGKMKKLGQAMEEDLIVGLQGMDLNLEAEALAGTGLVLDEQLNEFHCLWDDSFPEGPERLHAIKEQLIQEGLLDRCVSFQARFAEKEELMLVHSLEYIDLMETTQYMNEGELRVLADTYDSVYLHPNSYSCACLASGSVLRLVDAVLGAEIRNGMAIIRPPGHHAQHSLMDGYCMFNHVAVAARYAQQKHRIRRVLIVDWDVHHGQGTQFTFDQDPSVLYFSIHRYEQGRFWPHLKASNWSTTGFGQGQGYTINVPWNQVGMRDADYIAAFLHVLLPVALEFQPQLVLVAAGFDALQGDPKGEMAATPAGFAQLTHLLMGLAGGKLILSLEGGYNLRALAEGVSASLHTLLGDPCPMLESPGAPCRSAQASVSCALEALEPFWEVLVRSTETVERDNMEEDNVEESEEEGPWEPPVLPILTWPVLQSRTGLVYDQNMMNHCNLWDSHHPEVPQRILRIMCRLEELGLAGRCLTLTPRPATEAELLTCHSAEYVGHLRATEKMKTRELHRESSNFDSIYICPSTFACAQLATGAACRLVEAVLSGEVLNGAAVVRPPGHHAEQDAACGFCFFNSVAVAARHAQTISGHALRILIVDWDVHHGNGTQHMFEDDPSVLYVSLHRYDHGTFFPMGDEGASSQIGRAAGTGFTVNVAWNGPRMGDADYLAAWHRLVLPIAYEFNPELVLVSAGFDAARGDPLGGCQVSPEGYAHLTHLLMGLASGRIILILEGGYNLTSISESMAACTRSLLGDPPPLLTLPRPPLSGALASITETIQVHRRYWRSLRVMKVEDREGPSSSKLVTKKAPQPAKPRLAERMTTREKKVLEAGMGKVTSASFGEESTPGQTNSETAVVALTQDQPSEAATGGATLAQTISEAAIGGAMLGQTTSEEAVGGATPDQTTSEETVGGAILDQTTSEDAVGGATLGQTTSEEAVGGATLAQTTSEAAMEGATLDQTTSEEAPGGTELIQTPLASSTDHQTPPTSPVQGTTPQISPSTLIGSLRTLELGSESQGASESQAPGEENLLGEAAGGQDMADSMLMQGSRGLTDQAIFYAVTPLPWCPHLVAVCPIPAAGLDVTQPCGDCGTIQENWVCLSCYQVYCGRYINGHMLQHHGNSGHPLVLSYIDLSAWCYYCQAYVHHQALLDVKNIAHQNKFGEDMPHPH
# Description: as §1, §2, §3, §4
# T1 sequence (Q92769 whole entry): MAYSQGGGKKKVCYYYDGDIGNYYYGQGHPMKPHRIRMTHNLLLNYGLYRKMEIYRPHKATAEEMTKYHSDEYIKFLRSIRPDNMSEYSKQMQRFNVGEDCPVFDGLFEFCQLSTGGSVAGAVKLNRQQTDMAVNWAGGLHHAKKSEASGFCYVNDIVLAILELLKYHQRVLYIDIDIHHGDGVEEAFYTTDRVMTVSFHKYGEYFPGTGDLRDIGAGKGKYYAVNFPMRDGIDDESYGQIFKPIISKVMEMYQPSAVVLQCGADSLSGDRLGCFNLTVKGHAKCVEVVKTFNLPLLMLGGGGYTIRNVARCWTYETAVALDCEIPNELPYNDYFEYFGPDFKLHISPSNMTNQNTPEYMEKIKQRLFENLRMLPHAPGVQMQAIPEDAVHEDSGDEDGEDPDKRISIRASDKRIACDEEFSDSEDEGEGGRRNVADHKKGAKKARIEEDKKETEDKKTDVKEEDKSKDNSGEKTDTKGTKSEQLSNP
IC50 (purified HDAC2),IC50 (purified HDAC6),Compound
1700 nM,2800 nM,CCC(CC)(c1ccc(OCC(O)C(C)(C)C)c(C)c1)c1ccc(OCC(=O)NO)cn1 (centres unmarked) [AM-155]
9600 nM,500 nM,CCC(CC)(c1ccc(OCC(O)C(C)(C)C)c(C)c1)c1ccc(OCCCC(=O)NO)cn1 (centres unmarked) [AM-171]
7200 nM,300 nM,CCC(CC)(c1ccc(OCCCCCC(=O)NO)cc1)c1ccc(OCC(O)C(C)(C)C)c(C)n1 (centres unmarked) [AM-193]
500 nM,600 nM,CCC(CC)(c1ccc(C(=O)NCCCCCC(=O)NO)cc1)c1ccc(OCC(O)C(C)(C)C)c(C)c1 (centres unmarked) [DK-406]
